Source: ChEMBL document CHEMBL1139147, “Evaluation of fluorescently labeled xylopyranosides as probes for proteoglycan biosynthesis” (Bioorg Med Chem Lett, 2007)
Active and inactive are the calls of the source. The rule behind the calls is not given here.

Legend:
[1] = Partition coefficient, log P assessed as retention time; type: physicochemical; settings: octanol/water
[2] = test system: T-24; assay: Suppression of glycosaminoglycan production in T24 cells at 0.1 mM; type: functional, cell-based; settings: Homo sapiens
[3] = test system: T-24; assay: Suppression of proteoglycan production in T24 cells at 0.1 mM; type: functional, cell-based; settings: Homo sapiens

Row | Structure (SMILES) | Activity [1] | Activity [2] | Activity [3]
1 | Oc1cc2ccc(O[C@@H]3OC[C@@H](O)[C@H](O)[C@H]3O)cc2cc1COCc1c2ccccc2cc2ccccc12 | 43.4 min |  | 
2 | CN(C)c1cccc2c(S(=O)(=O)Oc3ccc4cc(O[C@@H]5OC[C@@H](O)[C@H](O)[C@H]5O)ccc4c3)cccc12 | 38.48 min | Active | Active
3 | Oc1ccc2cc(O[C@@H]3OC[C@@H](O)[C@H](O)[C@H]3O)ccc2c1 | 17.73 min |  | 
